Test results from US10709735B2, “Immunotherapy against neuronal and brain tumors” (IMMATICS BIOTECHNOLOGIES GMBH, priority 2007, dated 2020).

test system: CD8+ T cells; assay: In vitro immunogenicity: priming of CD8+ T cells with peptide-MHC/anti-CD28 coated beads (aAPC), tetramer readout; type: cell-based, human; details: CD8+ T cells of healthy HLA-A*02+ donors, three stimulation cycles with high density beads; positive well: at least 1% specific tetramer+ among CD8+ T cells and at least 10x median of negative controls
Description: To perform in vitro stimulations by artificial antigen presenting cells (aAPC) loaded with peptide-MHC complex (pMHC) and anti-CD28 antibody, PBMCs (peripheral blood mononuclear cells) were isolated from fresh HLA-A*02+ buffy coats by using standard density gradient separation medium (PAA, Cölbe, Germany). Buffy coats were obtained from the Katharinenhospital Stuttgart. Isolated PBMCs were incubated overnight in T-cell medium (TCM) for human in vitro priming consisting of RPMI-Glutamax (Invitrogen, Karlsruhe, Germany) supplemented with 10% heat inactivated human AB serum (PAA, Cölbe, Germany), 100 U/ml Penicillin/100 μg/ml Streptomycin (Cambrex, Verviers, Belgium), 1 mM sodium pyruvate (CC Pro, Neustadt, Germany) and 20 μg/ml Gentamycin (Cambrex). CD8+ lymphocytes were isolated using the CD8+ MACS positive selection kit (Miltenyi, Bergisch Gladbach, Germany) according to the manufacturer's instructions. Obtained CD8+ T cells were incubated until use in TCM supplemented with 2.5 ng/ml IL-7 (PromoCell, Heidelberg, Germany) and 10 U/ml IL-2 (Chiron, Munich, Germany). Generation of pMHC/anti-CD28 coated beads, T-cell stimulations and readout was performed as described before (Walter et al., 2003) with minor modifications. Briefly, biotinylated recombinant HLA-A*0201 molecules lacking the transmembrane domain and biotinylated at the carboxy terminus of the heavy chain were produced following a method described by Altman et al., 1996). The purified costimulatory mouse IgG2a anti human CD28 Ab 9.3 (Jung et al., 1987) was chemically biotinylated using Sulfo-N-hydroxysuccinimidobiotin as recommended by the manufacturer (Perbio, Bonn, Germany). 5.60 μm large streptavidin coated polystyrene particles beads were used (Bangs Laboratories, Illinois/USA). pMHC was used as positive and negative controls were A*0201/MLA-001 (peptide […] from modified Melan-A/MART-1) and A*0201/DDX5-001 ([…] from DDX5), respectively.
800,000 beads/200 μl were coated in 96-well plates in the presence of 600 ng biotin anti-CD28 plus 200 ng relevant biotin-pMHC (high density beads) or 2 ng relevant plus 200 ng irrelevant (pMHC library) MHC (low density beads). Stimulations were initiated in 96-well plates by conincubating 1×10^6 CD8+ T cells with 2×10^5 washed coated beads in 200 μl TCM supplemented with 5 ng/ml IL-12 (PromoCell) for 3-4 days at 37° C. Half of the medium was then exchanged by fresh TCM supplemented with 80 U/ml IL-2 and incubating was continued for 3-4 days at 37° C. This stimulation cycle was performed for a total of three times. Finally, tetrameric analyses were performed with fluorescent MHC tetramers (produced as described by (Altman et al., 1996)) plus antibody CD8-FITC clone SK1 (BD, Heidelberg, Germany) on a FACSCalibur or a LSR II flow cytometer (BD). Peptide specific cells were calculated as percentage of total CD8+ T cells. Evaluation of tetrameric analysis was performed using the software FCS Express (De Novo Software). In vitro priming of specific tetramer+ CD8+ lymphocytes was detected by appropriate gating and by comparing to negative control stimulations.
Results shown have been obtained by stimulation of CD8+ cells with high density beads. As different human serum lots may highly affect the immunogenicity results, only assays in which one and the same serum lot was used, were evaluated together.

**Q.** For “AIIDGVESV (listed as Homo sapiens) [PTP-003, PTPRZ1-derived tumor associated peptide, HLA A*02]”, which Immunogenicity detected is on record?
**A.** Yes

**Q.** Which Immunogenicity detected does the source give for “ALTTLMHQL (listed as Homo sapiens) [PTP-001, PTPRZ1-derived tumor associated peptide, HLA A*0205]” here?
**A.** Yes

**Q.** How did the Immunogenicity detected turn out when “FLLPDTDGL (listed as Homo sapiens) [PTP-004, PTPRZ1-derived tumor associated peptide, HLA A*02]” was run?
**A.** Yes

**Q.** With “FLYKVILSL (listed as Homo sapiens) [PTP-002, PTPRZ1-derived tumor associated peptide, HLA A*02]” as the sequence, how does the Immunogenicity detected read?
**A.** Yes

**Q.** With “KVFAGIPTV (listed as Homo sapiens) [PTP-005, PTPRZ1-derived tumor associated peptide, HLA A*02]” as the sequence, how does the Immunogenicity detected read?
**A.** Yes

**Q.** “SLWAGVVVL (listed as Homo sapiens) [CHI-001, CHI3L2-derived tumor associated peptide, HLA A*02]” was tested. Which Immunogenicity detected did it give?
**A.** Yes
